Results published in BindingDB's records for doi:10.1124/jpet.103.062836 (Bayer Healthcare, 2004).

How the values were obtained:
[1] = target: Cannabinoid receptor 1 (Rattus norvegicus, UniProt P20272)
[2] = target: Cannabinoid receptor 2 (Homo sapiens, UniProt P34972)
Chain of Cannabinoid receptor 2 (P34972 whole entry): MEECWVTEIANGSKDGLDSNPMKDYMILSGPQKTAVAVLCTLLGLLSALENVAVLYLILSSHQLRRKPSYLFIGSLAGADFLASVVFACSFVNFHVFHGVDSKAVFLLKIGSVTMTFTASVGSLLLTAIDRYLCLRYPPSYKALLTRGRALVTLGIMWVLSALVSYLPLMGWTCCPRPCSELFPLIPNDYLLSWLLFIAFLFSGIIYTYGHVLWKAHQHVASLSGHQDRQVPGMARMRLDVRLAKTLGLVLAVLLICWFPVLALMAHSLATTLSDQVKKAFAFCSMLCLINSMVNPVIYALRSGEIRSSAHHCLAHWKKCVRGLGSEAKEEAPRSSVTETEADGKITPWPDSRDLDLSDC

Chain of Cannabinoid receptor 1 (P20272 whole entry): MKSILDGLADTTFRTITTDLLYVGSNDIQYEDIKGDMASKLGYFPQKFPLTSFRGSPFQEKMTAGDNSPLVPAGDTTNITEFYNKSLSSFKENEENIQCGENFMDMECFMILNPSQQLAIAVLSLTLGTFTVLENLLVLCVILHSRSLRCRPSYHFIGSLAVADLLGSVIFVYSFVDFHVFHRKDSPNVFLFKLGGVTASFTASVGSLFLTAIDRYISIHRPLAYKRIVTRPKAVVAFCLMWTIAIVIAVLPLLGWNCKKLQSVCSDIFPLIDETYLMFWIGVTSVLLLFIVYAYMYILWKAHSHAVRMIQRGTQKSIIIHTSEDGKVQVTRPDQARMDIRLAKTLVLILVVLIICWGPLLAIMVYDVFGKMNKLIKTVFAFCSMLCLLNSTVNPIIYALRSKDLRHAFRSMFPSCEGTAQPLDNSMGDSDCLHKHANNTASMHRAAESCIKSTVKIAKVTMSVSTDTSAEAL

Compound: N#Cc1c(Oc2cccc(OS(=O)(=O)CCCC(F)(F)F)c2)cccc1C(F)(F)F
- Ki [1]: 55.4 nM
- Ki [2]: 45.5 nM
